{"source": "patent US20240059688A1", "about": "“CONOLIDINE ANALOGUES AS SELECTIVE ACKR3 MODULATORS FOR THE TREATMENT OF CANCER” (Luxembourg Institute of Health (LIH), priority 2020, published 2024)", "molecular_target": "T1, melatonin receptor 1B (MTNR1B) (Homo sapiens, UniProt P49286)", "T1 sequence (P49286 1-362)": "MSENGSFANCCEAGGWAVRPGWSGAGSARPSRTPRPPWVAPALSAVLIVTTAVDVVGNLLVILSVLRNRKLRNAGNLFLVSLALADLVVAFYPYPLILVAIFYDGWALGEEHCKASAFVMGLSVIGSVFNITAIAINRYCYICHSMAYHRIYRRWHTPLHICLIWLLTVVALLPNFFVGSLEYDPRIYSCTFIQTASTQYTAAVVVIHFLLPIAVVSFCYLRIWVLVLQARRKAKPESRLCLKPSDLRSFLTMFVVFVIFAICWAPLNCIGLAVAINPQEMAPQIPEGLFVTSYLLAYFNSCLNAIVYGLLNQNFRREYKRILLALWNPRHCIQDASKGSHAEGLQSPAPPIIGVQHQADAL", "test": "GPCR β-arrestin screening (PathHunter gpcrMAX/orphanMAX), MTNR1B", "format": "cell-based", "details": "conolidine 10 μM", "description": "In an effort to identify the target of conolidine among the GPCR family, we undertook a large scale screening program using a β-arrestin recruitment assay based on β-galactosidase complementation (PathHunter, DiscoverX). Over 240 receptors were tested for their ability to be activated or inhibited by conolidine (10 μM) (data not shown). These included 168 GPCRs from the gpcrMAX panel, covering over 60 distinct receptor families such as adrenergic, dopamine, P2Y or serotonin and 74 GPCRs from the orphanMAX panel.", "data": [{"smiles": "C/C=C1/CN2CC[C@H]1C(=O)c1[nH]c3ccccc3c1C2", "note": "[WW-1, (4E,5R)-4-ethylidene-1,4,5,7-tetrahydro-2,5-ethanoazocino[4,3-b]indol-6(3H)-one]", "values": [{"measurement": "activation of MTNR1B in GPCR screening", "value": "only partially activated"}]}]}
